Assay results published in PMC6142817, “New Urea Derivatives Are Effective Anti-senescence Compounds Acting Most Likely via a Cytokinin-Independent Mechanism” (Frontiers in Plant Science, 2018).
Where two headings read alike, the source gives them in different places.

How the values were obtained:
[1] = tested on: cytokinin-dependent tobacco callus; assay: Tobacco callus bioassay; type: cell-based; conditions: for inhibition of callus growth at the highest concentration tested: 100 μM
Experimental: (§1) Tobacco callus, Amaranthus and Wheat leaf senescence assay (WLSA) were performed as described by Holub et al. ([1998]) including the number of repetitions in each assay. An exception to the published protocols was that the tobacco callus assay was performed in 6-well microtiter plates (with each well containing 3 ml of Murashige Skoog medium into which 0.1 g of callus was added). Each compound was tested at least twice in each assay and in a wider concentration range to obtain concentration-dependent activity curves. IC50 means compound concentration at which chlorophyll degradation is inhibited by 50% and EC50 means half the maximal effective concentration.

[2] = tested on: excised wheat leaves (chlorophyll degradation in the dark); assay: Wheat leaf senescence assay (WLSA); type: cell-based, Triticum aestivum cv. Hereward
Experimental: as §1
(§2) Amaranthus assay evaluates the induction of betacyanin synthesis in Amaranthus (Amaranthus caudatus var. atropurpurea) cotyledons, which is induced by cytokinins (Bamberger and Mayer, [1960]). The WLSA evaluates the ability of compounds to retard chlorophyll degradation in excised wheat leaves that are kept in the dark. The wheat leaf segments (Triticum aestivum cv. Hereward) were used in all other experiments requiring wheat. Arabidopsis (Arabidopsis thaliana) leaf senescence assay was performed with detached leaves from 30-day-old plants, which were grown in soil in phytotron under standard conditions (Rivero et al., [2014]). Four leaves of a combined weight of 60 mg were placed in a six-well plate and stored in the dark for 12 days at 22°C. The leaves (except the fresh control leaves) floated on water solutions of tested compounds. Fresh control leaves were leaves detached from a plant and immediately used for chlorophyll determination. The duration of the senescence assay of Arabidopsis leaves was prolonged to highlight the difference in chlorophyll content between a negative control and treatments. Arabidopsis leaves were losing chlorophyll more slowly than wheat leaves. Chlorophyll extraction and spectrophotometric determination of its content was done according to Holub et al. ([1998]).

[3] = tested on: Amaranthus caudatus cotyledon-hypocotyl explants; assay: Amaranthus bioassay (betacyanin synthesis); type: cell-based, Amaranthus caudatus var. atropurpurea
Experimental: as §1, §2

ARR5:GUS reporter gene = assay: Arabidopsis ARR5:GUS reporter gene assay; type: in vivo, Arabidopsis thaliana; conditions: for ARR5:GUS activation (in words): in vivo; for ARR5:GUS activity, % of BA activity: 1 μM BA = 100%; for EC50: Arabidopsis thaliana, transgenic Arabidopsis plants, read-out: ARR5:GUS activation EC50
Experimental: Transgenic Arabidopsis plants (Arabidopsis thaliana (L.) Heynh. accession Wassilewskija) harboring the GUS reporter gene (gene for β-glucuronidase) fused to 1.6 kb of the ARR5 (PARR5−GUS) gene promoter (D'Agostino et al., [2000]) were kindly provided by professor Thomas Schmülling. The assay was performed according to Romanov et al. ([2002]). β-Glucuronidase (GUS) activity was quantitatively determined by measuring fluorescence of 4-methylumbelliferyl (MU) on a Synergy H4 hybrid reader (Biotek, Winooski, VT) with excitation and emission wavelengths of 365 and 445 nm, respectively. GUS specific activity was determined as nmol MU × mg protein^−1 × h^−1. This was calculated by dividing the relative fluorescence units (obtained per hour) by protein content of the same sample. Protein extraction was done as described by Romanov et al. ([2002]) but its content was determined using a bicinchoninic acid reagent (Smith et al., [1985]). Finally we expressed the GUS activity in samples as a relative percentage, the activity of 1 μM BA being set as 100% activation. The concentration-dependent activity curves and EC50 values (for TDZ, tZ, BA, TD-iP, and TD-tZ) were constructed using Scion image program.

AHK3 = molecular target: T1, AHK3 (Arabidopsis thaliana, UniProt Q9C5U1); assay: Cytokinin receptor activation assay in E. coli (AHK3); type: cell-based
T1 construct: expressed in transfected cells; host or cells: Escherichia coli strain KMI001, plasmid pSTV28-AHK3
T1 sequence (Q9C5U1 1-1036): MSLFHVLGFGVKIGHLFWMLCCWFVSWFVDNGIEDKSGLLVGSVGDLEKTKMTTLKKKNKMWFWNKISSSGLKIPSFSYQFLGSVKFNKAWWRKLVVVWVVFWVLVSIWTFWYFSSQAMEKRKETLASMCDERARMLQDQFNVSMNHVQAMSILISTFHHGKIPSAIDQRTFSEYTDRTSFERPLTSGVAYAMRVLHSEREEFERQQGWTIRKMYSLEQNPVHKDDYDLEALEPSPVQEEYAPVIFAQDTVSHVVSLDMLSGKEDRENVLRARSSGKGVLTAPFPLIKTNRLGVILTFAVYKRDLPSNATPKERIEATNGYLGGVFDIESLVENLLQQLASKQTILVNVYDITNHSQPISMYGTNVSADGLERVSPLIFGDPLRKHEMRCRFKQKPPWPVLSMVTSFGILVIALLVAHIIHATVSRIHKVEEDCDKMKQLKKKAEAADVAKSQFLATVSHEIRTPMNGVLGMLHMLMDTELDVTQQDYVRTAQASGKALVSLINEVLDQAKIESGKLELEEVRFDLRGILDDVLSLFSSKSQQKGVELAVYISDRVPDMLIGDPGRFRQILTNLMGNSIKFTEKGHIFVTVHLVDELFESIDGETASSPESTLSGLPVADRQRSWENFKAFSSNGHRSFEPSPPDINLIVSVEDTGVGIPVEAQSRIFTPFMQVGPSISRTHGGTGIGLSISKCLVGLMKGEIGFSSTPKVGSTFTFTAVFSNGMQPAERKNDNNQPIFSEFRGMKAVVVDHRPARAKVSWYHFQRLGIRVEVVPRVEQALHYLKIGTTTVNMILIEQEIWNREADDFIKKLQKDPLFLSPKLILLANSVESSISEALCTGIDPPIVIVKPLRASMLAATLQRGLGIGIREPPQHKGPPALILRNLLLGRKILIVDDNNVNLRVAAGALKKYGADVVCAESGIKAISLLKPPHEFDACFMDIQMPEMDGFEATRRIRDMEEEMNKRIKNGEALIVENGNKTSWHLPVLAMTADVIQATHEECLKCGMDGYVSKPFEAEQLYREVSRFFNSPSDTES
From the text: (§3) The activity of this enzyme is finally measured in the assay and corresponds to the ability of the tested compound to activate this cytokinin receptor. Both assays were done at least twice and the presented graphs are the most representative examples.

CRE1/AHK4 = CRE1/AHK4 (Arabidopsis thaliana, UniProt Q9C5U0); assay: Cytokinin receptor activation assay in E. coli (CRE1/AHK4); type: cell-based; design: expressed in transfected cells; host or cells: Escherichia coli strain KMI001, plasmid pIN-IIIAHK4; conditions: E. coli bacterial receptor assay; read-out: CRE1/AHK4 receptor activation EC50
From the text: as §3

[4] = tested on: detached Arabidopsis leaves (chlorophyll loss in the dark); assay: Arabidopsis leaf senescence assay; type: cell-based, Arabidopsis thaliana; conditions: 1 μM, 12 days in the dark
From the text: as §2

[5] = Nicotiana tabacum, half the maximal effective concentration, N.A. = not active, read-out: Tobacco callus bioassay (EC50)
[6] = Triticum aestivum, 120 h, detached wheat leaves in the dark, 5 days, concentration at which chlorophyll degradation is inhibited by 50%, read-out: Senescence bioassay (IC50)
[7] = betacyanin synthesis, N.A. = not active
[8] = Amaranthus caudatus, betacyanin synthesis, N.A. = not active, read-out: Amaranthus bioassay (EC50)
[9] = half the maximal effective concentration, N.A. = not active
[10] = detached wheat leaves in the dark, 5 days, concentration at which chlorophyll degradation is inhibited by 50%, read-out: Senescence bioassay (IC50)
[11] = E. coli bacterial receptor assay, read-out: AHK3 receptor activation EC50

Chain of CRE1/AHK4 (Q9C5U0 whole entry): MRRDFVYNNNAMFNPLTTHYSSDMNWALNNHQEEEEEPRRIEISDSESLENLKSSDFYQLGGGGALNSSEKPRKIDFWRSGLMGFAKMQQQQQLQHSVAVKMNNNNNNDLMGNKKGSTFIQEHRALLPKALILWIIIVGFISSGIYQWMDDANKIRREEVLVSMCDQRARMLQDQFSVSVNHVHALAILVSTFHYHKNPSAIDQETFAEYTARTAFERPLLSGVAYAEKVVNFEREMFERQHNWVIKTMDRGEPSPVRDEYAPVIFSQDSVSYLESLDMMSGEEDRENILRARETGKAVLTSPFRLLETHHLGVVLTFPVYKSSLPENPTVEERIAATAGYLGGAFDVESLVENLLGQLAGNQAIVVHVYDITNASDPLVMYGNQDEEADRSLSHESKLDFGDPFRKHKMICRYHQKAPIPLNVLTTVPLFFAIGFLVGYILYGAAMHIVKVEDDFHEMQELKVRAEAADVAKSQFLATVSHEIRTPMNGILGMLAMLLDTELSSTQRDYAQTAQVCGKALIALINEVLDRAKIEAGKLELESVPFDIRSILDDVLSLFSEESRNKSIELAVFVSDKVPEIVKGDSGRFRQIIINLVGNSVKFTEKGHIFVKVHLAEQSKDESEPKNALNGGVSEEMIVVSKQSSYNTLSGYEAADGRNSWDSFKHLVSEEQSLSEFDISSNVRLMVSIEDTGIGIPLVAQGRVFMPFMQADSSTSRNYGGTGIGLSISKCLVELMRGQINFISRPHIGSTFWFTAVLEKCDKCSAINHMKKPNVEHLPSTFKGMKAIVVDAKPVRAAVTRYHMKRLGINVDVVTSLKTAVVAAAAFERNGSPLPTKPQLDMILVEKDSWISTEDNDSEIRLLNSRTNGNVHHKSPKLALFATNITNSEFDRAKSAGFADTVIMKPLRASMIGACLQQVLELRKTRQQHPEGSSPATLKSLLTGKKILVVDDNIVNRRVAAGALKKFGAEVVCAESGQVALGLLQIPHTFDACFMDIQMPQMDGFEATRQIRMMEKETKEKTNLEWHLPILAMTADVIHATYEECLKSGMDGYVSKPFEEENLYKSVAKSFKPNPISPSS

O=C(NCCO)Nc1cnns1 [Compound 1]
EC50 [1, 5]: 15 µM | IC50 [2, 6]: 26 µM | Amaranthus bioassay (EC50, μM) [3, 7]: inactive

CC(CO)CCNc1ncnc2nc[nH]c12 (centres unmarked) [DHZ, dihydrozeatin, reference compound]
EC50 [1, 5]: 0.065 µM | IC50 [2, 6]: > 100 µM | EC50 [3, 8]: 10 µM

CCOCCNC(=O)Nc1cnns1 [Compound 11]
Tobacco callus bioassay (EC50, μM) [1, 9]: completely inactive | ARR5:GUS activation (in words) (ARR5:GUS reporter gene): completely inactive | IC50 [2, 6]: 83 µM | EC50 [3, 8]: > 100 µM

COCCCNC(=O)Nc1cnns1 [Compound 4]
EC50 [1, 5]: 2.2 µM | IC50 [2, 6]: 19 µM | EC50 [3, 8]: 16.7 µM

CC(CO)CCNC(=O)Nc1cnns1 (centres unmarked) [TD-DHZ, N-(4-hydroxy-3-methyl-butyl)-N′-1,2,3-thiadiazol-5-yl-urea]
times less active than DHZ in tobacco callus assay [1]: 10 times | EC50 [1, 5]: 0.82 µM | IC50 [2, 6]: 56 µM | EC50 [3, 8]: 43 µM

O=C(NCCCO)Nc1cnns1 [Compound 2]
EC50 [1, 5]: 7 µM | IC50 [2, 6]: < 10 µM | IC50 [2, 10]: 8 µM | EC50 [3, 8]: 75.5 µM

COC(CNC(=O)Nc1cnns1)OC [Compound 8]
EC50 [1, 5]: 2.4 µM | ARR5:GUS activity, % of BA activity (ARR5:GUS reporter gene; compound at 10 μM): 55–65% | EC50 [3, 8]: 16.7 µM

CC(O)CNC(=O)Nc1cnns1 (centres unmarked) [Compound 5]
EC50 [1, 5]: 7.1 µM | ARR5:GUS activity, % of BA activity (ARR5:GUS reporter gene; compound at 10 μM): 55–65% | Amaranthus bioassay (EC50, μM) [3, 7]: inactive

N^6-isopentenyladenine [iP, reference compound]
EC50 ([1]; half the maximal effective concentration, N.A. = not active, read-out: Tobacco callus bioassay (EC50)): 0.013 µM | IC50 [2, 10]: > 200 µM | EC50 ([3]; betacyanin synthesis, N.A. = not active, read-out: Amaranthus bioassay (EC50)): 2 µM

COC(=O)CNC(=O)Nc1cnns1 [Compound 9]
EC50 [1, 5]: 70 µM | IC50 [2, 6]: > 100 µM | EC50 [3, 8]: > 100 µM

CN(C)CCNC(=O)Nc1cnns1 [Compound 15]
Tobacco callus bioassay (EC50, μM) [1, 9]: completely inactive | ARR5:GUS activation (in words) (ARR5:GUS reporter gene): completely inactive | Amaranthus bioassay (EC50, μM) [3, 7]: inactive

CC(C)=CCNC(=O)Nc1cnns1 [TD-iP, N-2-isopentenyl-N′-1,2,3-thiadiazol-5-yl-urea]
EC50 (AHK3; [11]): 1.4 µM | inhibition of callus growth at the highest concentration tested [1]: did not inhibit the growth of callus | EC50 [1, 5]: 0.017 µM | EC50 (ARR5:GUS reporter gene): 0.065 µM | IC50 [2, 6]: 93 µM | EC50 (CRE1/AHK4): 9.4 µM | EC50 [3, 8]: 1.1 µM

C=CCNC(=O)Nc1cnns1 [Compound 13]
EC50 [1, 5]: 1.6 µM | ARR5:GUS activity, % of BA activity (ARR5:GUS reporter gene; compound at 10 μM): 55–65% | IC50 [2, 6]: < 10 µM | IC50 [2, 10]: 7.1 µM | EC50 [3, 8]: 14.2 µM

COCCN(C)C(=O)Nc1cnns1 [Compound 6]
Tobacco callus bioassay (EC50, μM) [1, 9]: completely inactive | IC50 [2, 6]: 25 µM | Amaranthus bioassay (EC50, μM) [3, 7]: inactive

c1ccc(CNc2ncnc3nc[nH]c23)cc1 [BA, N^6-benzyladenine, reference compound]
EC50 [1, 5]: 0.06 µM | EC50 (ARR5:GUS reporter gene): 0.076 µM | IC50 [2, 6]: > 100 µM | % more of chlorophyll retained than DMSO (negative control) [4]: 65% | EC50 [3, 8]: 0.75 µM

C/C(=C\CNC(=O)Nc1cnns1)CO [TD-tZ, N-[(E)-4-hydroxy-3-methyl-but-2-enyl]-N′-1,2,3-thiadiazol-5-yl-urea]
EC50 (AHK3; [11]): 0.19 µM | inhibition of callus growth at the highest concentration tested [1]: did not inhibit the growth of callus | EC50 [1, 5]: 0.01 µM | EC50 (ARR5:GUS reporter gene): 0.52 µM | IC50 [2, 6]: 13 µM | EC50 (CRE1/AHK4): 32 µM | EC50 [3, 8]: 1.5 µM

C#CCNC(=O)Nc1cnns1 [Compound 12]
EC50 [1, 5]: 2.4 µM | IC50 [2, 6]: 17 µM | EC50 [3, 8]: 15.3 µM

COCC(C)NC(=O)Nc1cnns1 (centres unmarked) [Compound 10]
EC50 [1, 5]: 3.1 µM | IC50 [2, 6]: < 10 µM | IC50 [2, 10]: 8.6 µM | EC50 [3, 8]: 26.5 µM

COCCN(CCOC)C(=O)Nc1cnns1 [Compound 7]
Tobacco callus bioassay (EC50, μM) [1, 9]: completely inactive | ARR5:GUS activation (in words) (ARR5:GUS reporter gene): completely inactive | IC50 [2, 6]: 62 µM | Amaranthus bioassay (EC50, μM) [3, 7]: inactive

O=C(NCCCl)Nc1cnns1 [Compound 14]
EC50 (AHK3): 15 µM | EC50 ([1]; Nicotiana tabacum, read-out: Tobacco callus bioassay (EC50, μM)): 0.87 µM | Tobacco callus bioassay (EC50, μM) [1, 9]: sub-micromolar range | ARR5:GUS activity, % of BA activity (ARR5:GUS reporter gene; compound at 1 μM): 65% | IC50 ([2]; Triticum aestivum, 120 h, read-out: Senescence bioassay (IC50, μM)): 14 µM | EC50 ([3]; Amaranthus caudatus, read-out: Amaranthus bioassay (EC50, μM)): 10.8 µM
